Assay results from ChEMBL document CHEMBL1158722, “Umbelactonyl cinnamate derivatives from Crypteronia paniculata that mediate DNA strand scission” (J Nat Prod, 2005).
Calls of active or inactive are those of the source. The calls are words filed in the database; no cut-off is given here.

Legend:
Escherichia coli [1] = experiment: Induction of Cu2+-dependent DNA cleavage in pSP64 DNA assessed as form 2 DNA formation at 0.1 uM
Escherichia coli [2] = experiment: Induction of Cu2+-dependent DNA cleavage in pSP64 DNA assessed as form 2 DNA formation at 10 uM
Escherichia coli [3] = experiment: Induction of Cu2+-dependent DNA cleavage in pSP64 DNA assessed as form 3 DNA formation
Escherichia coli [4] = experiment: Induction of Cu2+-dependent DNA cleavage in pSP64 DNA assessed as form 2 DNA formation at 1 uM
Escherichia coli [5] = experiment: Induction of Cu2+-dependent DNA cleavage in pSP64 DNA assessed as form 2 DNA formation at 0.01 uM
Escherichia coli [6] = experiment: Induction of Cu2+-dependent DNA cleavage in pSP64 DNA assessed as form 2 DNA formation at 5 uM

- Activity (Escherichia coli [1]): 32%
- Activity (Escherichia coli [2]): 92%
- Activity (Escherichia coli [3]): inactive
- Activity (Escherichia coli [4]): 68%
- Activity (Escherichia coli [5]): 16%
- Activity (Escherichia coli [6]): 88%
Structure (SMILES): CC1=CC(=O)O[C@H]1COC(=O)/C=C/c1ccc(O)c(O)c1
